This note sets out measurements from patent US7605272B2, “IGF-1R inhibitor” (Kyowa Hakko Kirin Co., Ltd., priority 2005, dated 2009).

Assay [1] has as its system NCI-H929. Put plainly: Cytostatic activity on human multiple myeloma cell line NCI-H929 (WST-1). It is filed as cell-based. The conditions noted are these: 1 μmol/L, 72 hours; for inhibition at 1 µM: Homo sapiens, NCI-H929, 72 h, read-out: cytostatic rate (%) H929 (1 μmol/L). The procedure, abridged:
(§1)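 Cells pre-cultured 24 h at 37 °C, 5% CO2, then exposed 72 h to compound at final 1 or 10 μmol/L (0.1% DMSO). WST-1 added for 2 h, absorbance at 450 nm (ref 690 nm). Cytostatic rate = 100 minus relative growth, with DMSO control as 100% and blank as 0%.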
Background: Formazan colour is commonly taken as a measure of viable cells.

The test system of assay [2] is KMS-11. Put plainly: Cytostatic activity on human multiple myeloma cell line KMS-11 (WST-1). The class given is cell-based. The conditions noted are these: 1 μmol/L, 72 hours; for inhibition at 1 µM: Homo sapiens, KMS-11, 72 h, read-out: cytostatic rate (%) KMS-11 (1 μmol/L). The essentials: as §1
Assay [3] deals with T1, IGF-1R (Homo sapiens, UniProt P08069).
T1 construct: purchased Upstate Co. 14-465
T1 sequence (P08069 959-1367 limits assumed): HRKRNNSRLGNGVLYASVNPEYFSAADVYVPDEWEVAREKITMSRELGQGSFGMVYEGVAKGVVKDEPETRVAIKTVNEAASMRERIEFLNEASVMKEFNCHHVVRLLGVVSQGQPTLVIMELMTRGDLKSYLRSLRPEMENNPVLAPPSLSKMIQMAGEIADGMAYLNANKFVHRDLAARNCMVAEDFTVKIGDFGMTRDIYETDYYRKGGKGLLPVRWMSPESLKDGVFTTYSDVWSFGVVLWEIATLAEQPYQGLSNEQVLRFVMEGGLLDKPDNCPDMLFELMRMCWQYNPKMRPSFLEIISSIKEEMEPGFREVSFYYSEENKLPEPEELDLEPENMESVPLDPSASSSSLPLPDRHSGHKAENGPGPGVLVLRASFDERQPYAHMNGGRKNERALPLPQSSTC
Put plainly: IGF-1R inhibitory activity (kinase reaction, time-resolved fluoroimmunoassay). The class given is biochemical. The conditions noted are these: IGF-1R active recombinant enzyme, test compound 10 μmol/L. The procedure, abridged:
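Compounds were tested at a single 10 μmol/L concentration. Each was incubated with recombinant IGF-1R (200 μg/L), 10 mmol/L ATP, MgCl2/MnCl2 and Na3VO4 (pH 7.5) on immobilized poly(Glu-Tyr) peptide for 30 min at 24° C. Eu-anti-phosphotyrosine time-resolved fluorescence (340/615 nm) gave relative activity against no-compound and no-enzyme wells, reported as % inhibition.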

Structures can show the parent of a compound that is named as a salt.

In the case of `Cc1ccsc1C(=O)Nc1cc(CN2CCN(C)CC2)ccc1/C=C/c1n[nH]c2ccccc12` [Compound 234, (E)-N-{2-[2-(1H-indazol-3-yl)vinyl]-5-(4-methylpiperazin-1-ylmethyl)phenyl}-3-methylthiophene-2-carboxamide], the inhibition at 1 µM in assay [1] is 118%; in assay [2] it was 111%. In addition, the inhibition at 10 µM in assay [3] turned out to be 102%.
For `Cc1ccsc1C(=O)Nc1cc(CN2CCC(S(C)(=O)=O)CC2)ccc1/C=C/c1n[nH]c2ccccc12` [Compound 235, (E)-N-{2-[2-(1H-indazol-3-yl)vinyl]-5-(4-methanesulfonylpiperidin-1-ylmethyl)phenyl}-3-methylthiophene-2-carboxamide] the same measures were 115%, 109% and 98.3%.
With `CCN(CC)CCNCc1ccc(/C=C/c2n[nH]c3ccccc23)c(NC(=O)c2sccc2C)c1` [Compound 236, (E)-N-{5-[(2-diethylaminoethylamino)methyl]-2-[2-(1H-indazol-3-yl)vinyl]phenyl}-3-methylthiophene-2-carboxamide], the inhibition at 1 µM in assay [1] is 123%; in assay [2], 139%. Moreover, the inhibition at 10 µM in assay [3] worked out at 99.5%.
With `CCN(CC)CCOc1ccc(NC(=O)c2sccc2C)c(/C=C/c2n[nH]c3ccccc23)c1` [Compound 237, (E)-N-{2-[2-(1H-indazol-3-yl)vinyl]-4-(2-diethylaminoethoxy)phenyl}-3-methylthiophene-2-carboxamide], the inhibition at 1 µM in assay [1] came out at 120%; in assay [2] it was 144%. For the same molecule, the inhibition at 10 µM in assay [3] amounted to 100%.
`COCCN(CCN1CCOCC1)c1ccc(NC(=O)c2sccc2C)c(/C=C/c2n[nH]c3ccccc23)c1` [Compound 238, (E)-N-{2-[2-(1H-indazol-3-yl)vinyl]-4-[N-(2-methoxyethyl)-2-(morpholin-4-yl)ethylamino]phenyl}-3-methylthiophene-2-carboxamide]: the inhibition at 1 µM in assay [1] was 126%; in assay [2], 132%. The inhibition at 10 µM in assay [3] amounted to 97.1%.
For `Cc1ccsc1C(=O)Nc1cc(C(=O)NC2CCNCC2)ccc1/C=C/c1n[nH]c2ccccc12` [Compound 240, (E)-N-{2-[2-(1H-indazol-3-yl)vinyl]-5-(piperidin-4-ylcarbamoyl)phenyl}-3-methylthiophene-2-carboxamide hydrochloride] the same measures were 105%, 67% and 103%.
`COCC(=O)N1CCN(Cc2ccc(/C=C/c3n[nH]c4ccccc34)c(NC(=O)c3sccc3C)c2)CC1` [Compound 244, (E)-N-{2-[2-(1H-indazol-3-yl)vinyl]-5-[4-(2-methoxyacetyl)piperazin-1-ylmethyl]phenyl}-3-methylthiophene-2-carboxamide]: the inhibition at 1 µM in assay [1] was 127%; in assay [2] it was 124%. Also, the inhibition at 10 µM in assay [3] was 102%.
`Cl.Cn1cccc1C(=O)Nc1cc(N2CCOCC2)ccc1/C=C/c1n[nH]c2ccccc12` [Compound 246, (E)-{2-[2-(1H-indazol-3-yl)vinyl]-5-(morpholin-4-yl)phenyl}-1-methyl-1H-pyrrole-2-carboxamide monohydrochloride]: the “cytostatic rate (%) H929 (1 μmol/L)” value in assay [1] is listed as 126.7%. Also, the “cytostatic rate (%) KMS-11 (1 μmol/L)” value in assay [2] is listed as 128.9%. Also, the “inhibitory activity (%) at 10 μmol/L” value in assay [3] was found to be 100.2%.
Turning to `Cc1ccsc1C(=O)Nc1cc(CN2CCN(C(=O)CO)CC2)ccc1/C=C/c1n[nH]c2ccccc12` [Compound 248, (E)-N-{2-[2-(1H-indazol-3-yl)vinyl]-5-[4-(2-hydroxyacetyl)piperazin-1-ylmethyl]phenyl}-3-methylthiophene-2-carboxamide], the inhibition at 1 µM in assay [1] amounted to 114%; in assay [2], 113%. In addition, the inhibition at 10 µM in assay [3] turned out to be 100%.
As for `COCCN(CCN1CCOCC1)C(=O)c1ccc(/C=C/c2n[nH]c3ccccc23)c(NC(=O)c2sccc2C)c1` [Compound 249, (E)-N-(2-[2-(1H-indazol-3-yl)vinyl]-5-{N-(2-methoxyethyl)-N-[2-(morpholin-4-yl)ethyl]carbamoyl}phenyl)-3-methylthiophene-2-carboxamide], the inhibition at 1 µM in assay [1] and in assay [2] was 113% each time. Moreover, the inhibition at 10 µM in assay [3] was 100%.
Turning to `Cc1ccsc1C(=O)Nc1cc(OCCN2CCOCC2)ccc1/C=C/c1n[nH]c2ccccc12` [Compound 251, (E)-N-{2-[2-(1H-indazol-3-yl)vinyl]-5-[2-(morpholin-4-yl)ethoxy]phenyl}-3-methylthiophene-2-carboxamide], the inhibition at 1 µM was determined as 112% in assay [1] and 114% in assay [2]. The inhibition at 10 µM in assay [3] was 102%.
For `COCCN(C)Cc1ccc(/C=C/c2n[nH]c3ccccc23)c(NC(=O)c2sccc2C)c1` [Compound 252, (E)-N-{2-[2-(1H-indazol-3-yl)vinyl]-5-[N-(2-methoxyethyl)methylaminomethyl]phenyl}-3-methylthiophene-2-carboxamide] the same measures were 120%, 113% and 101%.
As to `Nc1cccc2c1C(=O)N(c1ccc(F)cc1/C=C/c1n[nH]c3ccccc13)C2=O` [Compound 254, (E)-4-amino-2-{4-fluoro-2-[2-(1H-indazol-3-yl)vinyl]phenyl}isoindole-1,3-dione], the inhibition at 1 µM in assay [1] worked out at 116%; in assay [2], 81.2%. Further, in assay [3], the inhibition at 10 µM was 99.5%.
For `CCN(CC)CCN(CCO)C(=O)c1ccc(/C=C/c2n[nH]c3ccccc23)c(NC(=O)c2sccc2C)c1` [Compound 255, (E)-N-(5-{N-[2-(diethylamino)ethyl]-N-(2-hydroxyethyl)carbamoyl}-2-[2-(1H-indazol-3-yl)vinyl]phenyl)-3-methylthiophene-2-carboxamide] the same measures were 121%, 97.6% and 100%.
For `COCCCN(CCO)C(=O)c1ccc(/C=C/c2n[nH]c3ccccc23)c(NC(=O)c2sccc2C)c1` [Compound 256, (E)-N-{5-[N-(2-hydroxyethyl)-N-(3-methoxypropyl)carbamoyl]-2-[2-(1H-indazol-3-yl)vinyl]phenyl}-3-methylthiophene-2-carboxamide] the same measures were 122%, 105% and 100%.
For the molecule `Cc1ccsc1C(=O)Nc1cc(C(=O)N(CCO)CCN2CCOCC2)ccc1/C=C/c1n[nH]c2ccccc12` [Compound 259, (E)-N-{5-[N-(2-hydroxyethyl)-N-(2-morpholinoethyl)carbamoyl]-2-[2-(1H-indazol-3-yl)vinyl]phenyl}-3-methylthiophene-2-carboxamide], the inhibition at 1 µM in assay [1] is 118%; in assay [2], 104%. Further, the inhibition at 10 µM in assay [3] came out at 102%.
For `COCCN(C)C(=O)c1ccc(/C=C/c2n[nH]c3ccccc23)c(NC(=O)c2sccc2C)c1` [Compound 260, (E)-N-{2-[2-(1H-indazol-3-yl)vinyl]-5-[N-(2-methoxyethyl)-N-methylcarbamoyl]phenyl}-3-methylthiophene-2-carboxamide], the inhibition at 1 µM in assay [1] came to 119%; in assay [2], 118%. The inhibition at 10 µM in assay [3] is 102%.
In the case of `COc1ccc(/C=C/c2n[nH]c3ccccc23)c(NC(=O)c2sccc2C)c1OC` [Compound 261, (E)-N-{6-[2-(1H-indazol-3-yl)vinyl]-2,3-dimethoxyphenyl}-3-methylthiophene-2-carboxamide], the inhibition at 1 µM turned out to be 115% in assay [1] and 121% in assay [2]. For the same molecule, the inhibition at 10 µM in assay [3] amounted to 101%.
As to `Cc1ccsc1C(=O)Nc1cc(N2CCN(C)CC2)ccc1/C=C/c1n[nH]c2ccccc12` [Compound 262, (E)-N-{2-[2-(1H-indazol-3-yl)vinyl]-5-(4-methylpiperazin-1-yl)phenyl}-3-methylthiophene-2-carboxamide], the inhibition at 1 µM in assay [1] and in assay [2] was 119% each time. Besides, the inhibition at 10 µM in assay [3] was determined as 103%.
In the case of `Cc1ccsc1C(=O)Nc1cc(CNC2CCNCC2)ccc1/C=C/c1n[nH]c2ccccc12` [Compound 264, (E)-N-{2-[2-(1H-indazol-3-yl)vinyl]-5-(piperidin-4-ylaminomethyl)phenyl}-3-methylthiophene-2-carboxamide], the inhibition at 1 µM in assay [1] turned out to be 111%; in assay [2] it was 58.5%. The inhibition at 10 µM in assay [3] turned out to be 102%.
As to `Cc1ccsc1C(=O)Nc1cc(F)ccc1/C=C/c1n[nH]c2ccccc12` [Compound 265, (E)-N-{5-fluoro-2-[2-(1H-indazol-3-yl)vinyl]phenyl}-3-methylthiophene-2-carboxamide], the inhibition at 1 µM was found to be 115% in assay [1] and 96.9% in assay [2]. Moreover, the inhibition at 10 µM in assay [3] worked out at 98.4%.
For `COc1c(OCCN2CCOCC2)ccc(/C=C/c2n[nH]c3ccccc23)c1NC(=O)c1sccc1C` [Compound 266, (E)-N-{6-[2-(1H-indazol-3-yl)vinyl]-2-methoxy-3-(2-morpholinoethoxy)phenyl}-3-methylthiophene-2-carboxamide] the same measures were 118%, 131% and 103%.
